ChEMBL document CHEMBL3046060, “Synthesis, molecular docking study, and anticancer activity of triaryl-1,2,4-oxadiazole” (Med Chem Res, 2013)

Experiments:
K562 [1] = assay: Cytotoxicity against Homo sapiens (human) K562 cells assessed as inhibition of cell proliferation after 24 hr by MTT assay; assay type: functional, cell-based; conditions: K562, 24 h
K562 [2] = assay: Cytotoxicity against Homo sapiens (human) K562 cells at 50 uM after 24 hr by MTT assay; assay type: functional
MCF7 [3] = assay: Cytotoxicity against Homo sapiens (human) MCF7 cells at 50 uM after 24 hr by MTT assay; assay type: functional
MCF7 [4] = assay: cells; conditions: Homo sapiens, MCF7, 24 h
Description: Cytotoxicity against Homo sapiens (human) MCF7 cells assessed as inhibition of cell proliferation after 24 hr by MTT assay

Compound | IC50 (MCF7 [4]) [µM] | IC50 (K562 [1]) [µM] | Activity (K562 [2]) [%] | Activity (MCF7 [3]) [%]
COc1cccc2c1C(=O)c1c(O)c3c(c(O)c1C2=O)C[C@@](O)(C(=O)CO)C[C@@H]3O[C@H]1C[C@H](N)[C@H](O)[C@H](C)O1 [DOXORUBICIN] | > 100 | 4.49 |  | 
CC(=O)O[C@H]1C(=O)[C@@]2(C)[C@H]([C@H](OC(=O)c3ccccc3)[C@]3(O)C[C@H](OC(=O)[C@H](O)[C@@H](NC(=O)c4ccccc4)c4ccccc4)C(C)=C1C3(C)C)[C@]1(OC(C)=O)CO[C@@H]1C[C@@H]2O [PACLITAXEL] |  | > 100 |  | 
Clc1ccc(C2=NOC(c3ccccc3)N2c2ccccc2)cc1 (centres undefined) | 23.7 | 97 | >50 | >50

Continued by falling IC50 (MCF7 [4]), values first:

IC50 (MCF7 [4]) [µM] | Compound | IC50 (K562 [1]) [µM] | Activity (K562 [2]) [%] | Activity (MCF7 [3]) [%]
22.6 | Clc1ccc(C2=NOC(c3ccc(Cl)cc3)N2c2ccc(Cl)cc2)cc1 (centres undefined) | 51.2 | >50 | >50
10.1 | Clc1ccc(C2=NOC(c3ccc(Cl)cc3)N2c2ccccc2)cc1 (centres undefined) | 22.2 | >50 | >50
6.5 | Fc1ccc(C2ON=C(c3ccc(Cl)cc3)N2c2ccccc2)cc1 (centres undefined) | 21.7 | >50 | >50
